Assay results taken from patent publication US9988462B2, “Material and methods for treating or preventing HER-3 associated diseases” (Daiichi Sankyo Europe GmbH, priority 2005, dated 2018).

Assays:
[1] = tested on: HER3 phosphorylation in A549 cells; assay: Reactivation study: pHER3 ELISA in A549 cells; format: cell-based, human
Method: Experiments were performed in triplicate wells and repeated at least 2 times. Results are expressed as mean±SD.
A549 cells were plated in Ham's F-12 medium (Gibco), all media supplemented with 10% FBS (Hyclone, Logan, Utah) and 1× L-glutamine (Gibco). Cells were serum-starved overnight. […] Cells were washed with cold PBS after their respective treatment time points and lysed using RIPA buffer (20 mM Tris-HCl pH 7.5, 1% Igepal, 1% sodium deoxycholate, 150 mM NaCl, 0.1% SDS, 1% Triton X-100) containing 200 μM phenylmethanesulfonylfluoride (PMSF) (Fluka Biochemica), 200 μM Halt protease inhibitor cocktail kit (Pierce Biotechnology), and 200 μM sodium orthovanadate (Sigma-Aldrich, St. Louis, Mo.). The lysates were passed through QIA shredder columns (Qiagen) and the flow-through quantitated using a spectrophotometer (Beckman Coulter, Fullerton, Calif.). Proteins, 50 μg per well, were analyzed in duplicate for pHER3 using ELISA Duoset (R&D systems) according to manufacturer's protocol.

HCC-1569 = HCC-1569 breast cancer xenograft, U1-59 and lapatinib; format: in vivo, mouse; settings: HCC-1569 xenograft
A549 cells = assay: Anchorage-independent growth of A549 cells; format: cell-based, human; settings: A549, 10 μg/mL, 10 days
From the text: (§1) Tumor cell colonies formed in the absence of exogenous ligand for 10 days and were stained with MTT and quantified using a Scanalyzer HTS camera imaging system.

[2] = tested on: HER-3 phosphorylation (pHER-3); assay: Pharmacodynamic pHER-3 immunoblot of BxPC3 tumor xenografts; format: in vivo, mouse; settings: 500 μg on day 1 and day 4, sacrificed day 5
Method: The inhibition of HER-3 in the human pancreatic tumors could also be shown in a pharmacodynamic experiment. The BxPC3 tumor xenografts were grown as described above. […] The mice were treated on day 1 and day 4 and then sacrificed on day 5 to measure the antibody-dependent inhibition of HER-3 phosphorylation (pHER-3).
The tumors were homogenized in a standard RIPA buffer with protease inhibitors. 50 μg clear lysate was separated on a 4-20% Tris-glycine gel, transferred onto a nitrocellulose membrane and blocked in 3% bovine serum albumin (BSA). Immunoblotting was performed using an anti-pHER-3 antibody (antibody 21D3, Cell Signaling technology). An anti-actin antibody (AB a-2066, Sigma) was used as a control.
Expression was detected by enhanced chemiluminescence (Amersham Biosciences, Piscataway, N.J.). The images were captured with the Versadoc 5000 Imaging System (BioRad, Hercules, Calif.). […] See, FIG. 20 of US Publication No. 20080124345.

[3] = Interspecies scaling of U1-59 PK to human; settings: estimated by interspecies scaling (mice, rat, monkeys)
Method: (§2) Inhibition of pHER in the BxPC3 xenograft tumors was analyzed by western blotting. A PK/PD/Efficacy model (based on Simeoni et al. (2004) Cancer Res. 64:1094-1101) was used to prospectively select dose and schedule for further testing. To confirm the PK/PD/Efficacy model, BxPC3 pancreatic tumor-bearing mice were treated with 400 μg/mouse biweekly and 200 μg/mouse biweekly, weekly and twice a week. […] The relationship between drug concentration, inhibition of pHER-3 in animals, and interspecies PK scaling was used to select the minimally effective dose for the first in human study.

MDA-MB-435 cells = assay: Anchorage-independent growth of MDA-MB-435 cells; format: cell-based, human; settings: basal MDA-MB-435
Method: (§3) IgG was used as a negative control for all studies. Tumor cell colonies formed in the absence or presence of HRG for 6 to 10 days and were stained with MTT for 4 to 6 hours and quantified.

[4] = target: T1, reduced, denatured HER-3-His tagged purified ECD protein (Homo sapiens, UniProt P21860); assay: Dot blot analysis of reduced, denatured HER-3 ECD; format: binding
T1 construct: The extracellular domain of HER-3 (ECD) cDNA was cloned by polymerase chain reaction (PCR); His (C); made in house; host or cells: HEK293

[5] = tested on: MDA-MB-175VII breast cancer cells; assay: Proliferation of MDA-MB-175VII cells (ALOMAR BLUE); format: cell-based, human; settings: four days
Method: After four days, the growth of treated cells was measured with ALOMAR BLUE™.

pHER-3 = pHER-3 in BxPC3 xenograft tumors (quantitative Western blot); format: in vivo, mouse; settings: for inhibition of pHER-3: quantitative Western blot
Method: as §2

rat HER-3 = target: T2, rat HER-3 (Rattus norvegicus, UniProt Q62799); assay: ELISA cross-reactivity with rat HER-3; format: binding
T2 construct: The cDNAs expressing the ECD of human and rat HER-3 were cloned into mammalian expression vectors as V5-His fusion proteins; V5-His; made in house; host or cells: mammalian expression vector; HEK 293T is named only for the chimeras
From the text: The extra-cellular domain (ECD) of Human HER-3 cDNA was amplified from RAT1-HER-3 cells. The rat HER-3 cDNAs was amplified by RT-PCR from rat liver RNA and confirmed by sequencing. The cDNAs expressing the ECD of human and rat HER-3 were cloned into mammalian expression vectors as V5-His fusion proteins. Domains from the human HER-3 ECD were swapped into the scaffold provided by the rat HER-3 ECD by using the Mfe1, BstX1 and DraIII internal restriction sites. By this means, various chimeric rat/human HER-3 ECD HIS fusion proteins (amino acids 1-160, 161-358, 359-575, 1-358, 359-604) were constructed and expressed via transient transfection of HEK 293T cells. Expression of the constructs was confirmed using a rat polyclonal antibody against human HER-3. The human monoclonal antibodies were tested in ELISA for binding to the secreted chimeric ECDs.

[6] = tested on: BxPC3 pancreatic xenografts; assay: BxPC3 xenograft dose/schedule efficacy (PK/PD/Efficacy model); format: in vivo, mouse; settings: vs IgG control
Method: as §2

BxPC3 [7] = assay: BxPC3 xenograft in SCID mice, combination with Erbitux; format: in vivo, mouse; settings: BxPC3 with Matrigel, CB17 SCID mice, weekly i.p. for six weeks
Method: 5×10^6 BxPC3 cells were inoculated subcutaneously with Matrigel into CB17 SCID mice. After tumor volumes had reached 200 mm^3, mice were randomized into individual treatment groups. […] All antibodies were dosed at a single loading dose of 50 mg/kg/week, followed by weekly injections of 25 mg/kg for six weeks. Control arms received bi-weekly administrations of Gemcitabine (120 mg/kg), weekly pooled human IgG or weekly vehicle (PBS) injections. The regimens are detailed in TABLE 9 below.

[8] = Serum concentration of U1-59 at necropsy; format: in vivo, mouse
Method: as §2

[9] = tested on: SkBr-3 breast cancer cells; assay: Anchorage-independent growth of SkBr-3 cells; format: cell-based, human
Method: as §3

A549 NSCLC xenograft = A549 NSCLC xenograft model; format: in vivo, mouse; settings: vs IgG control or other HER mAbs
Method: (§4) To determine in vivo efficacy, mice bearing ˜200 mm^3 Calu-3 NSCLC xenografts were treated twice a week with anti-HER family inhibitors or control. Other experiments were done with A549 cells.
as §1

[10] = target: T3, L1-S1 extra-cellular domains of HER-3 (Homo sapiens, UniProt P21860); assay: ELISA binding to truncated L1-S1 HER-3 protein
T3 construct: L1 domain (aa 19-184), in the S1 (aa 185-327); V5-His (C); made in house; host or cells: HEK 293T (supernatant)

Calu-3 NSCLC xenografts = assay: Calu-3 NSCLC xenograft, U1-59 with panitumumab or erlotinib; format: in vivo, mouse; settings: Calu-3, twice a week; 100 μg U1-59, 100 μg panitumumab, 25 μg erlotinib
Method: as §4

BxPC3 [11] = assay: BxPC3 pancreatic tumor xenograft in SCID mice (established tumors); format: in vivo, mouse; settings: BxPC3, CB17 SCID mice; for tumor growth: 50 mg/kg then 25 mg/kg once weekly i.p.
Method: As controls sets of mice treated with either the vehicle control, PBS, or the established therapeutic antibody, Erbitux, were included. 5×10^6 BxPC3 cells were inoculated subcutaneously without Matrigel into CB17 SCiD mice. […] Thereafter the mice received once weekly 25 mg/kg injections for the duration of the study.

[12] = tested on: HER-3 phosphorylation in MCF-7 cells; assay: HRG-β induced HER-3 phosphorylation in MCF-7 cells (ELISA); format: cell-based, human; settings: 10 nM HRG-β for 10 min, read-out: IC50, inhibition of phosphorylation of HER-3
Method: Lysates were transferred to 1B4 (mouse anti-HER-3 mAb) ELISA plates and phosphorylation of HER-3 was analyzed with antibody 4G10. […] See, FIG. 7b of US Publication No. 20080124345.

[13] = A549, 24 hours, 50 μg/ml U1-59, 5 μM gefitinib

T2 sequence (Q62799 20-643 limits assumed): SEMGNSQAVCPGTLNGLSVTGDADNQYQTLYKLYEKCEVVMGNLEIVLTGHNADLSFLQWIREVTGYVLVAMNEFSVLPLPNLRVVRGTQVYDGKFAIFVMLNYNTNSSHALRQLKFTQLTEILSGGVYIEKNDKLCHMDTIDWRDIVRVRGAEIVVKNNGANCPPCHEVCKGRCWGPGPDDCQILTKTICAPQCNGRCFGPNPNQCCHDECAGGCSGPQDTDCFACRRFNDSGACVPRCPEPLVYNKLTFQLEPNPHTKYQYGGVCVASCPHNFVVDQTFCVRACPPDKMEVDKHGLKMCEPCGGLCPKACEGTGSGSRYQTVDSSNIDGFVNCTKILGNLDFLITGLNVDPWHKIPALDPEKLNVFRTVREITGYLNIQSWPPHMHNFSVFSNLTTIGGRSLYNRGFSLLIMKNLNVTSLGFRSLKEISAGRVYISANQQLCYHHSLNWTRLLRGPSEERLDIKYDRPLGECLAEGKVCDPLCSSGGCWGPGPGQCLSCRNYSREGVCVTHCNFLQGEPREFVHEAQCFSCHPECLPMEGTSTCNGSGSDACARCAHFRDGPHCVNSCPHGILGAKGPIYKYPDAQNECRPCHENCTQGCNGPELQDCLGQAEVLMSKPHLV

COc1cc2ncnc(Nc3ccc(F)c(Cl)c3)c2cc1OCCCN1CCOCC1 [gefitinib, 4-(3-chloro-4-fluorophenylamino)-7-methoxy-6-[3-(4-morpholinyl)propoxy]quinazoline]
HER3 phosphorylation ([1]; A549, 1 hour, 5 μM gefitinib): partial inhibition of HER phosphorylation
HER3 phosphorylation [1, 13]: reversed to control levels after 24 hours

CS(=O)(=O)CCNCc1ccc(-c2ccc3ncnc(Nc4ccc(OCc5cccc(F)c5)c(Cl)c4)c3c2)o1 [lapatinib, N-[3-chloro-4-[(3-fluorobenzyl)oxy]phenyl]-6-[5-[[[2-(methylsulfonyl)ethyl]amino]methyl]furan-2-yl]quinazolin-4-amine bis(4-methylbenzene-sulfonate)monohydrate, reference compound]
tumor growth (HCC-1569): some, but not significant tumor growth inhibition

U1-59: human anti-HER-3 antibody, SEQ ID NO: 70/72
HER3 phosphorylation [1, 13]: greater inhibition of HER phosphorylation that was sustained after 24 hours
inhibition of colony growth (A549 cells): 50%
phosphorylation of HER-3 in tumors [2]: no longer detectable
clearance (CL) in man [3]: 11 mL/day/kg
initial volume of distribution (Vd) in man [3]: 0.028 L/kg
colony growth / colony formation (MDA-MB-435 cells): did not inhibit colony growth
tumor growth (HCC-1569): did not inhibit HCC-1569 tumor growth
binding in dot blot analysis [4]: absence of binding
reduction of HRG-stimulated proliferation [5]: up to 40%
inhibition of pHER-3 (pHER-3; 200 μg/mouse biweekly): 58%
inhibition of pHER-3 (pHER-3; 200 μg/mouse twice a week): 20%
inhibition of pHER-3 (pHER-3; 200 μg/mouse weekly): 23%
inhibition of pHER-3 (pHER-3; 400 μg/mouse biweekly): 30%
trough concentration needed to achieve 90% maximal pHER-3 inhibition (IC90) (pHER-3; BxPC3 xenograft mice, estimated): ~3 μg/ml
Rat XR (cross-reactive) (rat HER-3): cross-reacted with rat HER-3 and Yes
inhibition of tumor growth ([6]; 200 μg/mouse biweekly): 33%
inhibition of tumor growth ([6]; 200 μg/mouse twice a week): 70%
inhibition of tumor growth ([6]; 200 μg/mouse weekly): 74%
inhibition of tumor growth ([6]; 400 μg/mouse biweekly): 50%
tumor growth (BxPC3 [7]): delayed the growth of the human pancreatic tumors to the same degree as Gemcitabine
Serum concentration at necropsy, mean (SD) ([8]; 200 μg/mouse biweekly): 0.45 (0.21) μg/mL
Serum concentration at necropsy, mean (SD) ([8]; 200 μg/mouse twice a week): 34.9 (9.1) μg/mL
Serum concentration at necropsy, mean (SD) ([8]; 200 μg/mouse weekly): 3.08 (0.82) μg/mL
Serum concentration at necropsy, mean (SD) ([8]; 400 μg/mouse biweekly): 2.07 (0.97) μg/mL
inhibition of colony growth [9]: 50%
tumor growth (A549 NSCLC xenograft): tumor stasis
binding to the L1-S1 protein [10]: bound to the L1-S1 protein
tumor growth (Calu-3 NSCLC xenografts): greatly reduced tumor growth as compared to control
delay of tumor growth compared with Erbitux (BxPC3 [11]): more effective than the EGF-R-targeting antibody Erbitux at delaying tumor growth
tumor growth (BxPC3 [11]): reduced the growth of the human pancreatic tumors in a cytostatic fashion

panitumumab: fully human monoclonal antibody specific to EGF-R [reference compound]
tumor growth (Calu-3 NSCLC xenografts): greatly reduced tumor growth as compared to control

B1: U1-53: anti-HER-3 antibody, SEQ ID NO: 54/56 (antibody, V domains shown)
VH: EVQLVESGGGLVQPGGSLRLSCAASGFTFSIYSMNWVRQAPGKGLEWVSYISSSSSTIYYADSVKGRFTISRDNAKNSLYLQMNSLRDEDTAVYYCARDRGDFDAFDIWGQGTMVTVSS
VL: DIQMTQSPSSLSASVGDRVTITCQASQDITNYLNWYQQKPGKAPKLLIYDASNLETGVPSRFSGSGSGTDFTFTISSLQPEDIATYNCQQCENFPITFGQGTRLEIK
binding in dot blot analysis [4]: absence of binding
Rat XR (cross-reactive) (rat HER-3): No
tumor growth (BxPC3 [7]): delayed the growth of the human pancreatic tumors to the same degree as Gemcitabine
IC50 [12]: 0.14 nM
delay of tumor growth compared with Erbitux (BxPC3 [11]): more effective than the EGF-R-targeting antibody Erbitux at delaying tumor growth
tumor growth (BxPC3 [11]): reduced the growth of the human pancreatic tumors in a cytostatic fashion
